IC50 data for 7 molecules are collected here from US20230381159A1 (priority 2020, published 2023).

Like-named read-outs stand apart in the source and are kept apart here.

Test [1] concerns SARS-CoV-2 pseudovirus (BacMam) entry into ACE2 expressing host cells (HEK293T). The test is described as follows: microbe, parasite or virus in culture. The class given is cell-based, SARS-CoV-2 pseudovirus / human cells. As to conditions: Severe acute respiratory syndrome-related coronavirus, HEK-293T, read-out: IC50, inhibition of pseudovirus entry (BacMam).
The target in another test is SARS-CoV-S1S2-hACE2 PPI (Severe acute respiratory syndrome coronavirus, UniProt P59594). The test is described as follows: biochemical. The class given is binding, SARS-CoV / human.
In the next test the target is SARS-CoV-2-RBD-hACE2 PPI (Severe acute respiratory syndrome coronavirus 2, UniProt P0DTC2). The test is described as follows: biochemical. The class given is binding, SARS-CoV-2 / human.
The mark [2] stands for this setting: read-out: IC50, SARS-CoV S-hACE2 assay.
[3] abbreviates: read-out: IC50, SARS-CoV-2 S-ACE2 assay.

Turning to `O=C(Nc1ccc(-c2ccc(C(=O)Nc3cccc4cc(S(=O)(=O)O)ccc34)cc2)cc1)c1ccc([N+](=O)[O-])cc1` [Compound A2, 5-(4′-(4-Nitrobenzamido)biphenyl-4-ylcarboxamido)naphthalene-2-sulfonic acid], the IC50 turned out to be 5.6 µM in test [1] and 3.4 µM on SARS-CoV-S1S2-hACE2 PPI.

Turning to `O=C(Nc1ccc2cc(S(=O)(=O)O)cc(O)c2c1)c1ccc(-c2ccc(C(=O)Nc3ccc4cc(S(=O)(=O)O)cc(O)c4c3)cc2)cc1` [Compound A5], the 50% inhibitory concentration (IC50) against SARS-CoV-S1S2-hACE2 PPI was determined as 0.24 µM; at SARS-CoV-2-RBD-hACE2 PPI (IC50, SARS-CoV-2 S-ACE2 assay), 0.16 µM.

`Nc1c(/N=N/c2ccc(-c3ccc(/N=N/c4cc(S(=O)(=O)O)c5ccccc5c4N)cc3)cc2)cc(S(=O)(=O)O)c2ccccc12` [Congo red]: the IC50 in test [1] is 20 µM; on SARS-CoV-S1S2-hACE2 PPI (setting [2]), 3.9 µM.

For the molecule `Cc1cc(-c2ccc(/N=N/c3ccc4c(S(=O)(=O)O)cc(S(=O)(=O)O)c(N)c4c3O)c(C)c2)ccc1/N=N/c1ccc2c(S(=O)(=O)O)cc(S(=O)(=O)O)c(N)c2c1O` [Evans blue], the IC50 on SARS-CoV-S1S2-hACE2 PPI (setting [2]) worked out at 1.3 µM.

Regarding `CCOc1ccc(N=Nc2ccc(-c3ccc(N=Nc4c(O)ccc5cc(S(=O)(=O)O)cc(S(=O)(=O)O)c45)c(C)c3)cc2C)cc1` [calcomine scarlet 3B], the IC50 on SARS-CoV-S1S2-hACE2 PPI (setting [2]) was determined as 9.9 µM; at SARS-CoV-2-RBD-hACE2 PPI (setting [3]), 4.25 µM.

Turning to `Nc1ccc(N=Nc2ccc(-c3ccc(N=Nc4c(S(=O)(=O)O)cc5cc(S(=O)(=O)O)c(N=Nc6ccccc6)c(O)c5c4N)cc3)cc2)c(N)c1` [chlorazol black], the IC50 at SARS-CoV-2-RBD-hACE2 PPI (setting [3]) was 2.57 µM.

`Nc1ccc2cc(S(=O)(=O)O)cc(O)c2c1N=Nc1ccc(-c2ccc(N=Nc3c(N)ccc4cc(S(=O)(=O)O)cc(O)c34)cc2)cc1` [direct violet 1]: the concentration for half-maximal inhibition (IC50) on SARS-CoV-S1S2-hACE2 PPI (setting [2]) came to 2.6 µM.
